From US8686044B2, “Amide derivative, pest control agent containing the amide derivative, and use of the amide derivative” (Mitsui Chemicals Agro, Inc., priority 2008, dated 2014)

Key:
Format in all cases: in vivo
Spodoptera litura = assay: Pesticidal test against Spodoptera litura (cabbage leaf dip); settings: foliar, 144 h, 2-stage larvae, examined after 6 days, 25° C., read-out: pesticidal rate; for pest or weed control at 1 ppm: concentration 1 ppm; for pest or weed control at 10 ppm: concentration 10 ppm
How it was run: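 Cabbage leaf pieces dipped 30 seconds in compound solution at a predetermined concentration and air-dried, then offered to second-stage larvae, five per group in two replicates. Held at 25° C. Living and dead larvae counted after 6 days.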

Plutella xylostella = assay: Pesticidal test against Plutella xylostella (cabbage leaf dip); settings: foliar, 144 h, 2-stage larvae, examined after 6 days, 25° C., read-out: pesticidal rate; for pest or weed control at 1 ppm: concentration 1 ppm; for pest or weed control at 10 ppm: concentration 10 ppm
How it was run: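 Cabbage leaf pieces dipped 30 s in test solution at a predetermined concentration, air-dried, then offered to 2nd-instar larvae, five per group in duplicate. Held at 25° C; living and dead larvae counted after 6 days.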

Laodelphax striatellus = assay: Pesticidal test against Laodelphax striatellus (rice seedling spray); settings: 144 h, concentration 100 ppm, 3-stage larvae, examined after 6 days, 25° C., read-out: pesticidal rate
Procedure: Pesticidal Test against Laodelphax striatellus
2.5 ml of an acetone solution in which a test compound had been prepared at a predetermined concentration was sprayed on rice seedlings, air-dried, and then put into a glass tube having a diameter of 3 cm and a height of 13 cm, having water therein, and 3-stage larvae of Laodelphax striatellus were released and the tube was capped. They were left to stand in a thermostatic chamber at 25° C., and the numbers of the living pests and the dead pests were examined after 6 days. The test was carried out with ten larvae per group in two replicates.

O=C(Nc1cccc(C(=O)Nc2c(Br)cc(C(F)(C(F)(F)F)C(F)(F)C(F)(F)F)cc2Br)c1)c1ccc(F)cc1 (stereo not drawn) [6-5906]
≥ 70%: pest or weed control at 1 ppm (Spodoptera litura) | pest or weed control at 1 ppm (Plutella xylostella) | pest or weed control at 100 ppm (Laodelphax striatellus)

O=C(Nc1cccc(C(=O)Nc2c(Br)cc(C(F)(C(F)(F)F)C(F)(F)F)cc2OC(F)(F)F)c1F)c1ccccc1 [6-5907]
≥ 70%: pest or weed control at 1 ppm (Spodoptera litura) | pest or weed control at 1 ppm (Plutella xylostella) | pest or weed control at 100 ppm (Laodelphax striatellus)

O=C(Nc1cccc(C(=O)Nc2c(Br)cc(C(F)(C(F)(F)F)C(F)(F)F)cc2OC(F)(F)F)c1F)c1cccnc1Cl [6-5908, N-(3-(2-bromo-4-(perfluoropropan-2-yl)-6-(trifluoromethoxy)phenylcarbamoyl)-2-fluorophenyl)-2-chloronicotinamide]
≥ 70%: pest or weed control at 1 ppm (Spodoptera litura) | pest or weed control at 1 ppm (Plutella xylostella) | pest or weed control at 100 ppm (Laodelphax striatellus)

N#Cc1ccc(C(=O)Nc2cccc(C(=O)Nc3c(Br)cc(C(F)(C(F)(F)F)C(F)(F)F)cc3OC(F)(F)F)c2F)cc1 [6-5909]
≥ 70%: pest or weed control at 1 ppm (Spodoptera litura) | pest or weed control at 1 ppm (Plutella xylostella) | pest or weed control at 100 ppm (Laodelphax striatellus)

O=C(Nc1cccc(C(=O)Nc2c(Br)cc(C(F)(C(F)(F)F)C(F)(F)F)cc2C(F)(F)C(F)(F)F)c1F)c1ccccc1 [6-5910]
≥ 70%: pest or weed control at 1 ppm (Spodoptera litura) | pest or weed control at 1 ppm (Plutella xylostella) | pest or weed control at 100 ppm (Laodelphax striatellus)

N#Cc1ccc(C(=O)Nc2cccc(C(=O)Nc3c(Br)cc(C(F)(C(F)(F)F)C(F)(F)F)cc3C(F)(F)C(F)(F)F)c2F)cc1 [6-5911, N-(2-bromo-6-(perfluoroethyl)-4-(perfluoropropan-2-yl)phenyl)-3-(4-cyanobenzamide)-2-fluorobenzamide]
≥ 70%: pest or weed control at 1 ppm (Spodoptera litura) | pest or weed control at 1 ppm (Plutella xylostella) | pest or weed control at 100 ppm (Laodelphax striatellus)

O=C(Nc1c(Br)cc(C(F)(F)C(F)(F)F)cc1C(F)(F)F)c1cccc(NC(=O)c2cccnc2Cl)c1 [6-5914]
≥ 70%: pest or weed control at 10 ppm (Spodoptera litura) | pest or weed control at 10 ppm (Plutella xylostella) | pest or weed control at 100 ppm (Laodelphax striatellus)

CN(C(=O)c1c(F)cccc1F)c1cccc(C(=O)Nc2c(Br)cc(C(F)(C(F)(F)F)C(F)(F)C(F)(F)F)cc2Br)c1 (stereo not drawn) [7-47]
≥ 70%: pest or weed control at 1 ppm (Spodoptera litura) | pest or weed control at 1 ppm (Plutella xylostella) | pest or weed control at 100 ppm (Laodelphax striatellus)

CN(C(=O)c1cccc([N+](=O)[O-])c1)c1cccc(C(=O)Nc2c(Br)cc(C(F)(C(F)(F)F)C(F)(F)F)cc2C(F)(F)F)c1 [7-285]
≥ 70%: pest or weed control at 1 ppm (Spodoptera litura) | pest or weed control at 10 ppm (Plutella xylostella) | pest or weed control at 100 ppm (Laodelphax striatellus)

CN(C(=O)c1ccc([N+](=O)[O-])cc1)c1cccc(C(=O)Nc2c(Br)cc(C(F)(C(F)(F)F)C(F)(F)F)cc2C(F)(F)F)c1 [7-286]
≥ 70%: pest or weed control at 1 ppm (Spodoptera litura) | pest or weed control at 1 ppm (Plutella xylostella) | pest or weed control at 100 ppm (Laodelphax striatellus)

CN(C(=O)c1cccc(C#N)c1)c1cccc(C(=O)Nc2c(Br)cc(C(F)(C(F)(F)F)C(F)(F)F)cc2C(F)(F)F)c1 [7-288]
≥ 70%: pest or weed control at 1 ppm (Spodoptera litura) | pest or weed control at 1 ppm (Plutella xylostella) | pest or weed control at 100 ppm (Laodelphax striatellus)

CN(C(=O)c1ccc(C#N)cc1)c1cccc(C(=O)Nc2c(Br)cc(C(F)(C(F)(F)F)C(F)(F)F)cc2C(F)(F)F)c1 [7-289]
≥ 70%: pest or weed control at 1 ppm (Spodoptera litura) | pest or weed control at 1 ppm (Plutella xylostella) | pest or weed control at 100 ppm (Laodelphax striatellus)

CN(C(=O)c1ccc(C#N)cc1Cl)c1cccc(C(=O)Nc2c(Br)cc(C(F)(C(F)(F)F)C(F)(F)F)cc2C(F)(F)F)c1 [7-301]
≥ 70%: pest or weed control at 1 ppm (Spodoptera litura) | pest or weed control at 1 ppm (Plutella xylostella) | pest or weed control at 100 ppm (Laodelphax striatellus)

CN(C(=O)c1cccnc1F)c1cccc(C(=O)Nc2c(Br)cc(C(F)(C(F)(F)F)C(F)(F)F)cc2C(F)(F)F)c1 [7-303]
≥ 70%: pest or weed control at 1 ppm (Spodoptera litura) | pest or weed control at 1 ppm (Plutella xylostella) | pest or weed control at 100 ppm (Laodelphax striatellus)

CN(C(=O)c1cccnc1Cl)c1cccc(C(=O)Nc2c(Br)cc(C(F)(C(F)(F)F)C(F)(F)F)cc2C(F)(F)F)c1 [7-304]
≥ 70%: pest or weed control at 1 ppm (Spodoptera litura) | pest or weed control at 1 ppm (Plutella xylostella) | pest or weed control at 100 ppm (Laodelphax striatellus)

CN(C(=O)c1ccc(Cl)nc1)c1cccc(C(=O)Nc2c(Br)cc(C(F)(C(F)(F)F)C(F)(F)F)cc2C(F)(F)F)c1 [7-311]
≥ 70%: pest or weed control at 1 ppm (Spodoptera litura) | pest or weed control at 1 ppm (Plutella xylostella) | pest or weed control at 100 ppm (Laodelphax striatellus)

CN(C(=O)c1ccc(C#N)nc1)c1cccc(C(=O)Nc2c(Br)cc(C(F)(C(F)(F)F)C(F)(F)F)cc2C(F)(F)F)c1 [7-316]
≥ 70%: pest or weed control at 10 ppm (Spodoptera litura) | pest or weed control at 10 ppm (Plutella xylostella) | pest or weed control at 100 ppm (Laodelphax striatellus)

CN(C(=O)c1cccc(F)c1)c1cccc(C(=O)Nc2c(I)cc(C(F)(C(F)(F)F)C(F)(F)F)cc2C(F)(F)F)c1 [7-426]
≥ 70%: pest or weed control at 1 ppm (Spodoptera litura) | pest or weed control at 1 ppm (Plutella xylostella) | pest or weed control at 100 ppm (Laodelphax striatellus)

CN(C(=O)c1ccc(F)cc1)c1cccc(C(=O)Nc2c(I)cc(C(F)(C(F)(F)F)C(F)(F)F)cc2C(F)(F)F)c1 [7-427]
≥ 70%: pest or weed control at 1 ppm (Spodoptera litura) | pest or weed control at 1 ppm (Plutella xylostella) | pest or weed control at 100 ppm (Laodelphax striatellus)

CN(C(=O)c1ccc(C#N)cc1)c1cccc(C(=O)Nc2c(I)cc(C(F)(C(F)(F)F)C(F)(F)F)cc2C(F)(F)F)c1 [7-445]
≥ 70%: pest or weed control at 1 ppm (Spodoptera litura) | pest or weed control at 1 ppm (Plutella xylostella) | pest or weed control at 100 ppm (Laodelphax striatellus)

CN(C(=O)c1cccnc1Cl)c1cccc(C(=O)Nc2c(I)cc(C(F)(C(F)(F)F)C(F)(F)F)cc2C(F)(F)F)c1 [7-460]
≥ 70%: pest or weed control at 1 ppm (Spodoptera litura) | pest or weed control at 1 ppm (Plutella xylostella) | pest or weed control at 100 ppm (Laodelphax striatellus)

CN(C(=O)c1ccc(Cl)nc1)c1cccc(C(=O)Nc2c(I)cc(C(F)(C(F)(F)F)C(F)(F)F)cc2C(F)(F)F)c1 [7-467]
≥ 70%: pest or weed control at 1 ppm (Spodoptera litura) | pest or weed control at 1 ppm (Plutella xylostella) | pest or weed control at 100 ppm (Laodelphax striatellus)

CN(C(=O)c1ccc(C#N)cc1)c1cccc(C(=O)Nc2c(C(F)(F)F)cc(C(F)(C(F)(F)F)C(F)(F)F)cc2C(F)(F)F)c1 [7-825]
≥ 70%: pest or weed control at 1 ppm (Spodoptera litura) | pest or weed control at 10 ppm (Plutella xylostella) | pest or weed control at 100 ppm (Laodelphax striatellus)

CN(C(=O)c1cccnc1Cl)c1cccc(C(=O)Nc2c(C(F)(F)F)cc(C(F)(C(F)(F)F)C(F)(F)F)cc2C(F)(F)F)c1 [7-840]
≥ 70%: pest or weed control at 1 ppm (Spodoptera litura) | pest or weed control at 1 ppm (Plutella xylostella) | pest or weed control at 100 ppm (Laodelphax striatellus)

CN(C(=O)c1ccccc1)c1cccc(C(=O)Nc2c(Cl)cc(C(F)(C(F)(F)F)C(F)(F)F)cc2Cl)c1F [7-948]
≥ 70%: pest or weed control at 1 ppm (Spodoptera litura) | pest or weed control at 1 ppm (Plutella xylostella) | pest or weed control at 100 ppm (Laodelphax striatellus)
